Reference: US6306897A, “Calanolides for inhibiting BTK” (Parker Hughes Institute, priority 1999, dated 2001)

How the values were obtained:
[1] = target: T1, recombinant BTK (Mus musculus, UniProt P35991); experiment: Recombinant BTK immune-complex kinase assay (baculovirus vector expression system); format: biochemical, murine; conditions: for inhibition of recombinant BTK, concentration dependence: BTK expressed in a baculovirus vector expression system; for IC50: recombinant BTK, kinase assay (Table 1)
T1 construct: made in house; host or cells: Insect cells (Sf21, IPLB-SF21-AE) with recombinant baculovirus from pFastBac1-BTK
Protocol: The effects of calanolides on the enzymatic activity of the tyrosine kinase BTK in kinase assays was evaluated using recombinant BTK, according to the methods previously reported (Mahajan et al., 1999, J Biol. Chem., 274:9587-9599).
Sf21 (IPLB-SF21-AE) cells, derived from the ovarian tissue of the fall armyworm Spodotera frugiperda, were obtained from Invitrogen and maintained at 26-28° C. in Grace's insect cell medium supplemented with 10% FBS and 1.0% antibiotic/antimycotic (GIBCO-BRL). Stock cells were maintained in suspension at 0.2-1.6×10^6 /ml in 600 ml total culture volume in 1 L Bellco spinner flasks at 60-90 rpm. Cell viability was maintained at 95-100% as determined by trypan blue dye exclusion.
To construct the recombinant baculovirus containing the murine BTK gene, the gene encoding BTK was excised from pBluescript SKII^+ vector (Stratagene) by digestion with BamHI. This fragment was then ligated into pFastBac1 (Gibco-BRL). The resulting vector, pFastBac1-BTK, was used to generate the recombinant baculovirus by site-specific transposition in E. coli DH10Bac cells (Gibco-BRL), which harbor a baculovirus shuttle vector (bacmid), bMON14272. The resulting recombinant bacmid DNA was introduced into insect cells by transfection with the standard liposome-mediated method using Cellfectin reagent (Gibco-BRL). Four days later, transfection supernatants were harvested for subsequent plaque purification and analyzed.
Immunoprecipitations, immune-complex protein kinase assays, and immunoblotting using the ECL chemiluminescence detection system (Amersham Life Sciences) were conducted as described previously (Mahajan et al., 1999, J. Biol. Chem., 274:9587-9599). Following electrophoresis, kinase gels were dried onto Whatman 3M filter paper and subjected to phosphoimaging on a Molecular Imager (Bio-Rad, Hercules, Calif.) as well as autoradiography on film. Similarly, all chemiluminescent BTK Western blots were subjected to three dimesional densitometric scanning using the Molecular Imager and Imaging Densitometer using the Molecular Analyst/Macontosh version 2.1 software following the specifications of the manufacturer (Bio-Rad). For each drug concentration, a BTK kinase activity index was determined by comparing the ratios of the kinase activity in phosphorimager units (PIU) and density of the protein bands in densitometric scanning units (DSU) to those of the baseline sample and using the formula: Activity Index=[PIU of kinase band/DSU of BTK protein band]test sample :[PIU of kinase band/DSU of BTK protein band]baseline control sample. Horse radish peroxidase-conjugated sheep anti-mouse, donkey anti-rabbit secondary antibodies and ECL reagents were purchased from Amersham (Oakbrook, Ill.).

[2] = test system: RBL-2H3 mast cells; experiment: β-hexosaminidase release from IgE/antigen stimulated RBL-2H3 mast cells; format: cell-based; conditions: 1 hour preincubation, IgE/DNP-BSA challenge 30 minutes
Protocol: (§1) RBL-2H3 cells were sensitized with monoclonal anti-DNP IgE antibody (0.24 mg/ml) for 1 hour at 37° C. in a 48-well tissue culture plate. RBL-2H3 cells were allowed to adhere to the plate, whereas bone marrow mast cells (BMMC) were used in suspension. Unbound IgE was removed by washing the cells with phosphate buffered saline. After washing the BMMC were re-suspended in RPMI-hepes buffer. PIPES-buffered saline containing 1 mM calcium chloride was added to the monolayers of the RBL-2H3 cells.
(§2) To study the effects of compound HI-D12, mast cells were incubated with compound HI-D12 at the indicated concentrations or vehicle for 1 hour prior to challenge. The cells were challenged with 20 ng/ml DNP-BSA for 30 minutes at 37° C. The plate was then centrifuged at 200 g for 10 minutes at 4° C. Supernatants were removed and saved. RBL-2H3 cell pellets were washed with phosphate buffered saline and solubilized in PIPES buffered saline containing 0.1% Triton X-100.
(§3) Leukotriene (LT) C4 levels were estimated in cell free supernatants by immunoassay using (LT) C4 ELISA kits obtained from Cayman Company (Ann Arbor, Mich.), according to the manufacturer instructions. β-hexosaminidase release was estimated in cell free supernatants and Triton X-100 solubilized pellets, using the method described in Ozawa et al, 1993, J. Biol. Chem., 268:1749-1756.

[3] = test system: BALB/c mice; experiment: Passive cutaneous anaphylaxis in mice (Evans blue dye extravasation); format: in vivo
Protocol: In order to examine the effect of HI-D12 on passive cutaneous anaphylaxis in mice, dorsal sides of the ears of BALB/c mice were injected intradermally with 20 ng of DNP-IgE (left ears) or PBS (right ears) in 20 μL volume using a 30-gauge needle, as previously described (Miyajima et. al., 1997, J. Clin. Invest. 99:901-914). After 20 hours, mice were treated with compound HI-D12 (15 or 50 mg/kg i.p.) twice at 1 hour intervals prior to the antigen challenge. Control mice were treated with an equal volume of vehicle. Thirty minutes after the last dose of compound HI-D12 or vehicle, mice were challenged with 100 μg antigen (DNP-BSA) in 200 μl 2% Evans blue dye intravenously. Mice were sacrificed by cervical dislocation 30 minutes after the antigen challenge. For quantitation of Evans blue dye extravasation as a measure of anaphylaxis-associated vascular hyperpermeability, 8 mm skin specimens were removed from the ears of mice, minced in 2 ml formamide and incubated at 80° C. for 2 hours in water bath to extract the dye. The absorbance was read at […]. The data were expressed as plasma exudation indices (i.e., times increase in optical density over PBS treated ears at 620 nm).

[4] = test system: RBL-2H3 mast cells; experiment: Leukotriene C4 release from IgE/antigen stimulated RBL-2H3 mast cells (LTC4 ELISA); format: cell-based; conditions: 1 hour preincubation, IgE/DNP-BSA challenge 30 minutes
Protocol: as §1, §2, §3

T1 sequence (P35991 whole entry): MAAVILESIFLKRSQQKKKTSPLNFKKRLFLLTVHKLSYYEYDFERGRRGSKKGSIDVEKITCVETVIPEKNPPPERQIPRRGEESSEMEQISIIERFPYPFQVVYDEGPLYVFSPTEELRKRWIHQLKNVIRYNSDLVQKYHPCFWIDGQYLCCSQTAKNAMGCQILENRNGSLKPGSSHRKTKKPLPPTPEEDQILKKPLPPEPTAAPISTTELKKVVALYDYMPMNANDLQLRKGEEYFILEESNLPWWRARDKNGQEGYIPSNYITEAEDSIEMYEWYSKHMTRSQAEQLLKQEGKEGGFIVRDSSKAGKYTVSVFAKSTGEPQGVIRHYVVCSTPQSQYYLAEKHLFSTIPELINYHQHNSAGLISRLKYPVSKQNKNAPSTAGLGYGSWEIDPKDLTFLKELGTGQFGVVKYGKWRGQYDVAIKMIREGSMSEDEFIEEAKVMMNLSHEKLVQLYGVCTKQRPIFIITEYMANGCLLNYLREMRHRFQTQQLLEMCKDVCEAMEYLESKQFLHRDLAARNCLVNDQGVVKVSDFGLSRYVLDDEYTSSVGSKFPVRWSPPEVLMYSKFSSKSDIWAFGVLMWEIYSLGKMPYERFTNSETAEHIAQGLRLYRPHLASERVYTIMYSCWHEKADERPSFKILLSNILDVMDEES

SMILES | inhibition of recombinant BTK, concentration dependence [1] | IC50 [1] [µM] | effect on release of preformed granule-associated β-hexosaminidase [2] | tolerability of dose level ([3]; 50 mg/kg dose level) | inhibition of IgE/antigen induced plasma exudation ([3]; 50 mg/kg i.p., twice prior to antigen challenge) [%] | inhibition of LTC4 release [4]
CCCc1cc(=O)oc2c3c(c4c(c12)OC(C)(C)C=C4)O[C@H](C)[C@@H](C)[C@@H]3O (relative stereo) [HI-D63, (±)-Calanolide A] | in a concentration-dependent fashion | 130 |  |  |  | 
CCCc1cc(=O)oc2c3c(c4c(c12)OC(C)(C)C=C4)O[C@H](C)[C@@H](C)C3=O (relative stereo) [HI-D86, 10,11-trans-Dihydro-6,6,10,11-tetramethyl-4-propyl-2H,6H,12H-benzo[2-b: 3,4-b':5,6-b"]tripyran-2,12-dione] | in a concentration-dependent fashion | 110 |  |  |  | 
CCCc1cc(=O)oc2c(C(=O)CC)c(O)c3c(c12)OC(C)(C)C=C3 [HI-D12, 6,6 Dimethyl-9-hydroxy-10-propionyl-4-propyl-2H,6H-benzo[1,2-b: 3,4-b']dipyran-2-one] | in a concentration-dependent fashion | 29 | did not prevent the release of preformed granule-associated β-hexosaminidase | nontoxic | 70 | inhibited the release of the newly synthesized arachidonic acid metabolite LTC4 in a concentration-dependent fashion
